Tested on: LNCaP cells
Method: After 25 hours of incubation in testosterone-containing medium, the cells were detached from the flasks with trypsin and pelleted. Five T162 flasks of pretreated cells were used as a control. Untreated cells were collected in the same manner.
Total RNA was prepared from the cell pellets using the RNeasy protocol (Qiagen).
The PCR products representing partial cDNAs of putatively differentially expressed mRNAs were subcloned into pCR2.1 (InVitrogen) and transformed into INValphaF^1 cells.
The differentially expressed genes were then identified by screening on a Gene Expression Micro-Array™ (Synteni, Inc.; Fremont, Calif.).
In some cases only a partial sequence is presented in the corresponding figure. The various methods described herein can employ complete sequences or fragments thereof.

Q: How did the “Fold Increase In mRNA: 54 kDa progesterone receptor-associated immunophilin FKBP54” value turn out when `C[C@]12CC[C@H]3[C@@H](CCC4=CC(=O)CC[C@@]43C)[C@@H]1CC[C@@H]2O` [testosterone] was run?
A: 2.5

Q: What about the “Fold Increase In mRNA: Ankyrin G (ANK-3) (U13616)” value of the same compound?
A: 2.7

Q: What about the “Fold Increase In mRNA: Aryl hydrocarbon receptor nuclear translocator” value of the same compound?
A: 4.6

Q: What about the “Fold Increase In mRNA: BM28 mRNA/DNA replication licensing factor (huMCM2)” value of the same compound?
A: 2.4

Q: And the “Fold Increase In mRNA: Cell division protein kinase 6” value?
A: 3.1

Q: What about the “Fold Increase In mRNA: Cytochrome b5” value of the same compound?
A: 3.3

Q: What about the “Fold Increase In mRNA: ESTs {23605}” value of the same compound?
A: 2.5

Q: What about the “Fold Increase In mRNA: ESTs {26259}” value of the same compound?
A: 5

Q: And the “Fold Increase In mRNA: ESTs {32161}” value?
A: 2.5

Q: And the “Fold Increase In mRNA: ESTs {41700}” value?
A: 4

Q: And the “Fold Increase In mRNA: ESTs {46287}” value?
A: 3

Q: And the “Fold Increase In mRNA: ESTs {48537}” value?
A: 4.5

Q: What about the “Fold Increase In mRNA: ESTs {51591}” value of the same compound?
A: 2.3

Q: And the “Fold Increase In mRNA: ESTs {52371}” value?
A: 2.6

Q: And the “Fold Increase In mRNA: ESTs {128055}” value?
A: 2.8

Q: And the “Fold Increase In mRNA: ESTs {128990}” value?
A: 5

Q: And the “Fold Increase In mRNA: ESTs {131591}” value?
A: 2.3

Q: And the “Fold Increase In mRNA: ESTs {135326}” value?
A: 3.4

Q: What about the “Fold Increase In mRNA: ESTs {141115}” value of the same compound?
A: 2.3

Q: And the “Fold Increase In mRNA: ESTs {151339}” value?
A: 2.4

Q: And the “Fold Increase In mRNA: ESTs {174787}” value?
A: 2.4

Q: What about the “Fold Increase In mRNA: ESTs {177150}” value of the same compound?
A: 3.1

Q: What about the “Fold Increase In mRNA: ESTs {180082}” value of the same compound?
A: 2.1

Q: What about the “Fold Increase In mRNA: ESTs {195079}” value of the same compound?
A: 4.3

Q: What about the “Fold Increase In mRNA: ESTs {221118}” value of the same compound?
A: 4.4

Q: What about the “Fold Increase In mRNA: ESTs {230447}” value of the same compound?
A: 2.4

Q: And the “Fold Increase In mRNA: ESTs {242643}” value?
A: 4.1

Q: And the “Fold Increase In mRNA: ESTs {249347}” value?
A: 3.5

Q: And the “Fold Increase In mRNA: ESTs {264293}” value?
A: 3

Q: And the “Fold Increase In mRNA: ESTs {297463}” value?
A: 2.3

Q: And the “Fold Increase In mRNA: ESTs {301487}” value?
A: 3.8

Q: And the “Fold Increase In mRNA: ESTs {344156}” value?
A: 5.9

Q: And the “Fold Increase In mRNA: ESTs {364477}” value?
A: 2.5

Q: And the “Fold Increase In mRNA: ESTs {364618}” value?
A: 2.7

Q: And the “Fold Increase In mRNA: ESTs {375900}” value?
A: 3.1

Q: And the “Fold Increase In mRNA: ESTs {415795}” value?
A: 2.8

Q: What about the “Fold Increase In mRNA: ESTs {429349}” value of the same compound?
A: 3

Q: What about the “Fold Increase In mRNA: ESTs {469725}” value of the same compound?
A: 3.7

Q: What about the “Fold Increase In mRNA: ESTs {471083}” value of the same compound?
A: 2.6

Q: And the “Fold Increase In mRNA: ESTs {488092}” value?
A: 2.5

Q: What about the “Fold Increase In mRNA: EXT1 = putative tumor suppressor/hereditary mult. exostoses candidate gene” value of the same compound?
A: 2.4

Q: And the “Fold Increase In mRNA: Eukaryotic initiation factor 1A” value?
A: 2.4

Q: And the “Fold Increase In mRNA: Fibronectin (S00848, transformation-associated human fragment)” value?
A: 2.8

Q: What about the “Fold Increase In mRNA: Gelsolin precursor” value of the same compound?
A: 2.8

Q: What about the “Fold Increase In mRNA: Guanine nucleotide exchange factor MSS4 (U74324) (−76 nucleotide)” value of the same compound?
A: 2.7

Q: And the “Fold Increase In mRNA: HEK2 protein tyrosine kinase receptor” value?
A: 2.6

Q: What about the “Fold Increase In mRNA: High mobility group protein HMG1 (X12597)” value of the same compound?
A: 2.6

Q: What about the “Fold Increase In mRNA: Histone H2AZ” value of the same compound?
A: 2.5

Q: What about the “Fold Increase In mRNA: Immunoglobulin rearranged H-chain V-region (C-D-J Hg)” value of the same compound?
A: 3.6

Q: And the “Fold Increase In mRNA: KIAA0018 gene (D13643)” value?
A: 3.3

Q: And the “Fold Increase In mRNA: Kinesin-related protein” value?
A: 4.8

Q: What about the “Fold Increase In mRNA: L-lactate dehydrogenase M chain (X02152, M17516)” value of the same compound?
A: 3

Q: What about the “Fold Increase In mRNA: Monoamine oxidase” value of the same compound?
A: 5.5

Q: What about the “Fold Increase In mRNA: Myeloblast KIAA0130 gene (D50920)” value of the same compound?
A: 3.3

Q: And the “Fold Increase In mRNA: Neprilysin” value?
A: 2.8

Q: And the “Fold Increase In mRNA: Phospholipase A2 (M22430)” value?
A: 2.7

Q: What about the “Fold Increase In mRNA: Pyruvate kinase (M26252) = human TCB gene encoding cytosolic thyroid hormone-binding protein” value of the same compound?
A: 2.3

Q: And the “Fold Increase In mRNA: Ras-like GTP-binding protein RAN” value?
A: 2.6

Q: What about the “Fold Increase In mRNA: S-adenosylmethionine decarboxylase” value of the same compound?
A: 2.3

Q: What about the “Fold Increase In mRNA: S-adenosylmethionine decarboxylase proenzyme (M21154)” value of the same compound?
A: 2.5

Q: And the “Fold Increase In mRNA: STS (WI 12919)” value?
A: 7.7

Q: And the “Fold Increase In mRNA: STS (WI-8530)” value?
A: 5

Q: What about the “Fold Increase In mRNA: Simian T-cell lymphotropic virus type I DNA for tax/rex region” value of the same compound?
A: 2.3

Q: And the “Fold Increase In mRNA: Spectrin alpha chain” value?
A: 3.5

Q: And the “Fold Increase In mRNA: Thyroid receptor interactor (TRIP7) (L40357) (−92 nucleotide)” value?
A: 2.4

Q: And the “Fold Increase In mRNA: Tubulin beta 1 chain” value?
A: 2.8

Q: And the “Fold Increase In mRNA: UDP glucuronosyltransferase precursor (UGT2B15)” value?
A: 2.8

Q: And the “Fold Increase In mRNA: UDP-glucuronosyltransferase 2B7 precursor” value?
A: 3.9

Q: And the “Fold Increase In mRNA: Vacuolar ATP synthase subunit AC39; or bovine (P17694) NADH-ubiquinone oxidoreductase 49 kD subunit” value?
A: 3.1

Q: And the “Fold Increase In mRNA: Yeast guanine nucleotide-binding protein beta subunit-like protein” value?
A: 2.4

Q: And the “Fold Increase In mRNA: p0071 protein (X81889)” value?
A: 2.4
